Measurements reported in patent US9371336B2, “Compounds for treating spinal muscular atrophy” (PTC Therapeutics Inc., priority 2012, dated 2016).

Experiments:
[1] = system: SMN2 minigene mRNA (SMN2-A minigene construct); experiment: SMN2 minigene mRNA splicing RT-qPCR assay in cultured cells; assay type: cell-based, human; settings: Homo sapiens, HEK293-H; HEK293H cells stably transfected with SMN2-A minigene, 24 hours, 7-point concentration data; concentration giving 1.5-fold SMN2 full length mRNA relative to vehicle-treated cells; read-out: EC1.5x for production of full length SMN2 mRNA
In short: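 Full-length SMN2 minigene mRNA, measured by exon 7/luciferase-specific RT-qPCR that excludes endogenous SMN1/SMN2, was normalized to GAPDH and expressed relative to vehicle-treated cells via modified ΔΔCt. Stably transfected HEK293H cells received compound (7-point, 3.16-fold series, duplicates) for 24 h at 37 °C.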

Smn protein = Smn protein assay (HTRF) in cultured cells (SMA patient fibroblasts GM03813); assay type: cell-based, human; settings: 48 hours; for EC1.5x for Smn protein expression: SMA patient fibroblast cells (GM03813), HTRF, 7-point concentration data, concentration producing 1.5 times Smn protein vs DMSO vehicle control; for maximum fold (Fold) increase of Smn protein: SMA patient fibroblast cells, 7-point concentration curve, relative to vehicle control
In short: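 Smn level is expressed as fold over vehicle, from blank-corrected ΔF of the 665/620 nm HTRF ratio. Readout used anti-SMN d2 and kryptate antibodies on RIPA lysates. GM03813 SMA fibroblasts had 48 h exposure at 37° C to seven 3.16-fold compound dilutions, run in triplicate.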

SMILES | EC (1.5-fold) [1] | EC1.5x for Smn protein expression (Smn protein) | maximum fold (Fold) increase of Smn protein (Smn protein) | melting point
Cc1cn2cc(-c3cc4ccc(N5C[C@@H](C)N[C@@H](C)C5)nc4oc3=O)nc2c(C)n1 [Cpd 90, 3-(6,8-dimethylimidazo[1,2-a]pyrazin-2-yl)-7-[(3R,5S)-3,5-dimethylpiperazin-1-yl]-2H-pyrano[2,3-b]pyridin-2-one] | ≤ 0.1 µM | **** (an EC1.5×≦0.3 μM is indicated by four stars (****)) | ***** (a fold increase >1.65 is indicated by five stars (*****)) | 279 to 282 °C
Cc1cn2cc(-c3cc4ccc(N5CCCN(C)CC5)nc4oc3=O)nc2c(C)n1 [Cpd 91, 3-(6,8-dimethylimidazo[1,2-a]pyrazin-2-yl)-7-(4-methyl-1,4-diazepan-1-yl)-2H-pyrano[2,3-b]pyridin-2-one] | ≤ 0.1 µM | **** (an EC1.5×≦0.3 μM is indicated by four stars (****)) | ***** (a fold increase >1.65 is indicated by five stars (*****)) | 243 to 245 °C
C[C@@H]1CN[C@@H](C)CN1c1ccc2cc(-c3cn4cccc(F)c4n3)c(=O)oc2n1 [Cpd 92, 7-[(2R,5S)-2,5-dimethylpiperazin-1-yl]-3-(8-fluoroimidazo[1,2-a]pyridin-2-yl)-2H-pyrano[2,3-b]pyridin-2-one] | ≤ 0.1 µM | **** (an EC1.5×≦0.3 μM is indicated by four stars (****)) | **** (a fold increase between >1.5 and ≦1.65 is indicated by four stars (****)) | 210 to 212 °C
C[C@@H]1CN[C@@H](C)CN1c1ccc2cc(-c3cn4cccc(Cl)c4n3)c(=O)oc2n1 [Cpd 94, 3-(8-chloroimidazo[1,2-a]pyridin-2-yl)-7-[(2R,5S)-2,5-dimethylpiperazin-1-yl]-2H-pyrano[2,3-b]pyridin-2-one] | ≤ 0.1 µM | **** (an EC1.5×≦0.3 μM is indicated by four stars (****)) | **** (a fold increase between >1.5 and ≦1.65 is indicated by four stars (****)) | 172 to 175 °C
Cc1cn2cc(-c3cc4ccc(N5C[C@H](C)NC[C@H]5C)nc4oc3=O)nc2c(C)n1 [Cpd 95, 3-(6,8-dimethylimidazo[1,2-a]pyrazin-2-yl)-7-[(2R,5S)-2,5-dimethylpiperazin-1-yl]-2H-pyrano[2,3-b]pyridin-2-one] | ≤ 0.1 µM | **** (an EC1.5×≦0.3 μM is indicated by four stars (****)) | ***** (a fold increase >1.65 is indicated by five stars (*****)) | 190 to 192 °C
Cc1ccn2cc(-c3cc4ccc(N5C[C@H](C)N(C)C[C@H]5C)nc4oc3=O)nc2c1 [Cpd 96, 3-(7-methylimidazo[1,2-a]pyridin-2-yl)-7-[(2R,5S)-2,4,5-trimethylpiperazin-1-yl]-2H-pyrano[2,3-b]pyridin-2-one] | 0.3 to 1 µM | – | *** (a fold increase between >1.35 and ≦1.5 is indicated by three stars (***)) | 114 to 117 °C
C[C@@H]1CN(C)[C@@H](C)CN1c1ccc2cc(-c3cn4cccc(F)c4n3)c(=O)oc2n1 [Cpd 97, 3-(8-fluoroimidazo[1,2-a]pyridin-2-yl)-7-[(2R,5S)-2,4,5-trimethylpiperazin-1-yl]-2H-pyrano[2,3-b]pyridin-2-one] | 0.1 to 0.3 µM | ** (an EC1.5× between >1 and ≦3 μM is indicated by two stars (**)) | **** (a fold increase between >1.5 and ≦1.65 is indicated by four stars (****)) | 194 to 197 °C
C[C@@H]1CN(C)[C@@H](C)CN1c1ccc2cc(-c3cn4cccc(Cl)c4n3)c(=O)oc2n1 [Cpd 98, 3-(8-chloroimidazo[1,2-a]pyridin-2-yl)-7-[(2R,5S)-2,4,5-trimethylpiperazin-1-yl]-2H-pyrano [2,3-b]pyridin-2-one] | 0.1 to 0.3 µM | ** (an EC1.5× between >1 and ≦3 μM is indicated by two stars (**)) | **** (a fold increase between >1.5 and ≦1.65 is indicated by four stars (****)) | 191 to 196 °C
Cc1ccn2cc(-c3cc4ccc(N5C[C@@H](C)N[C@@H](C)C5)nc4oc3=O)nc2n1 [Cpd 99, 7-[(3R,5S)-3,5-dimethylpiperazin-1-yl]-3-(7-methylimidazo[1,2-a]pyrimidin-2-yl)-2H-pyrano[2,3-b]pyridin-2-one] | 0.1 to 0.3 µM | – | *** (a fold increase between >1.35 and ≦1.5 is indicated by three stars (***)) | 270 to 273 °C
Cc1ccn2cc(-c3cc4ccc(N5C[C@@H](C)N[C@@H](C)C5)nc4oc3=O)nc2c1 [Cpd 100, 7-[(3R,5S)-3,5-dimethylpiperazin-1-yl]-3-(7-methylimidazo[1,2-a]pyridin-2-yl)-2H-pyrano[2,3-b]pyridin-2-one] | ≤ 0.1 µM | – | *** (a fold increase between >1.35 and ≦1.5 is indicated by three stars (***)) | 246 to 249 °C
Cc1cn2cc(-c3cc4ccc(N5C[C@@H](C)N[C@@H](C)C5)nc4oc3=O)nc2cn1 [Cpd 101, 7-[(3R,5S)-3,5-dimethylpiperazin-1-yl]-3-(6-methylimidazo[1,2-a]pyrazin-2-yl)-2H-pyrano[2,3-b]pyridin-2-one] | ≤ 0.1 µM | *** (an EC1.5× between >0.3 μM and ≦1 μM is indicated by three stars (***)) | **** (a fold increase between >1.5 and ≦1.65 is indicated by four stars (****)) | 279 to 281 °C
Cc1cn2cc(-c3cc4ccc(N5C[C@H](C)N(C)C[C@H]5C)nc4oc3=O)nc2cn1 [Cpd 103, 3-(6-methylimidazo[1,2-a]pyrazin-2-yl)-7-[(2R,5S)-2,4,5-trimethylpiperazin-1-yl]-2H-pyrano[2,3-b]pyridin-2-one] | 0.1 to 0.3 µM | *** (an EC1.5× between >0.3 μM and ≦1 μM is indicated by three stars (***)) | **** (a fold increase between >1.5 and ≦1.65 is indicated by four stars (****)) | 248 to 250 °C
Cc1cn2cc(-c3cc4ccc(N5CCCNCC5)nc4oc3=O)nc2cn1.Cl [Cpd 104, 7-(1,4-diazepan-1-yl)-3-(6-methylimidazo[1,2-a]pyrazin-2-yl)-2H-pyrano[2,3-b]pyridin-2-one hydrochloride] | ≤ 0.1 µM | – | ** (a fold increase between >1.2 and ≦1.35 is indicated by two stars (**)) | 267 to 269 °C
Cc1cn2cc(-c3cc4ccc(N5CCCN(C)CC5)nc4oc3=O)nc2cn1 [Cpd 105, 7-(4-methyl-1,4-diazepan-1-yl)-3-(6-methylimidazo[1,2-a]pyrazin-2-yl)-2H-pyrano[2,3-b]pyridin-2-one] | ≤ 0.1 µM | ** (an EC1.5× between >1 and ≦3 μM is indicated by two stars (**)) | *** (a fold increase between >1.35 and ≦1.5 is indicated by three stars (***)) | 290 to 293 °C
Cc1cc(F)c2nc(-c3cc4ccc(N5C[C@@H](C)N[C@@H](C)C5)nc4oc3=O)cn2c1 [Cpd 106, 7-[(3R,5S)-3,5-dimethylpiperazin-1-yl]-3-(8-fluoro-6-methylimidazo[1,2-a]pyridin-2-yl)-2H-pyrano[2,3-b]pyridin-2-one] | ≤ 0.1 µM | *** (an EC1.5× between >0.3 μM and ≦1 μM is indicated by three stars (***)) | *** (a fold increase between >1.35 and ≦1.5 is indicated by three stars (***)) | 280 to 283 °C
Cc1cc(F)c2nc(-c3cc4ccc(N5CCCNCC5)nc4oc3=O)cn2c1.Cl [Cpd 107, 7-(1,4-diazepan-1-yl)-3-(8-fluoro-6-methylimidazo[1,2-a]pyridin-2-yl)-2H-pyrano[2,3-b]pyridin-2-one hydrochloride] | ≤ 0.1 µM | *** (an EC1.5× between >0.3 μM and ≦1 μM is indicated by three stars (***)) | **** (a fold increase between >1.5 and ≦1.65 is indicated by four stars (****)) | 276 to 279 °C
O=c1oc2nc(N3CCNCC3)ccc2cc1-c1cn2cccc(F)c2n1 [Cpd 108, 3-(8-fluoroimidazo[1,2-a]pyridin-2-yl)-7-(piperazin-1-yl)-2H-pyrano[2,3-b]pyridin-2-one] | ≤ 0.1 µM | **** (an EC1.5×≦0.3 μM is indicated by four stars (****)) | **** (a fold increase between >1.5 and ≦1.65 is indicated by four stars (****)) | 231 to 235 °C
O=c1oc2nc(N3CCNCC3)ccc2cc1-c1cn2cccc(Cl)c2n1 [Cpd 109, 3-(8-chloroimidazo[1,2-a]pyridin-2-yl)-7-(piperazin-1-yl)-2H-pyrano[2,3-b]pyridin-2-one] | ≤ 0.1 µM | **** (an EC1.5×≦0.3 μM is indicated by four stars (****)) | **** (a fold increase between >1.5 and ≦1.65 is indicated by four stars (****)) | 233 to 237 °C
